# Experimental data published in patent publication US20240132475A1, “SUBSTITUTED PYRAZOLYL COMPOUNDS AS MALT-1 INHIBITORS” (AURIGENE ONCOLOGY LIMITED, priority 2021, published 2024).
# Target: T1, MALT-1 (Isoform 1) (Homo sapiens, UniProt Q9UDY8)
# T1 construct: using recombinant MALT-1 (Isoform 1, aa-840) generated in house; made in house
# T1 sequence (Q9UDY8 1-824): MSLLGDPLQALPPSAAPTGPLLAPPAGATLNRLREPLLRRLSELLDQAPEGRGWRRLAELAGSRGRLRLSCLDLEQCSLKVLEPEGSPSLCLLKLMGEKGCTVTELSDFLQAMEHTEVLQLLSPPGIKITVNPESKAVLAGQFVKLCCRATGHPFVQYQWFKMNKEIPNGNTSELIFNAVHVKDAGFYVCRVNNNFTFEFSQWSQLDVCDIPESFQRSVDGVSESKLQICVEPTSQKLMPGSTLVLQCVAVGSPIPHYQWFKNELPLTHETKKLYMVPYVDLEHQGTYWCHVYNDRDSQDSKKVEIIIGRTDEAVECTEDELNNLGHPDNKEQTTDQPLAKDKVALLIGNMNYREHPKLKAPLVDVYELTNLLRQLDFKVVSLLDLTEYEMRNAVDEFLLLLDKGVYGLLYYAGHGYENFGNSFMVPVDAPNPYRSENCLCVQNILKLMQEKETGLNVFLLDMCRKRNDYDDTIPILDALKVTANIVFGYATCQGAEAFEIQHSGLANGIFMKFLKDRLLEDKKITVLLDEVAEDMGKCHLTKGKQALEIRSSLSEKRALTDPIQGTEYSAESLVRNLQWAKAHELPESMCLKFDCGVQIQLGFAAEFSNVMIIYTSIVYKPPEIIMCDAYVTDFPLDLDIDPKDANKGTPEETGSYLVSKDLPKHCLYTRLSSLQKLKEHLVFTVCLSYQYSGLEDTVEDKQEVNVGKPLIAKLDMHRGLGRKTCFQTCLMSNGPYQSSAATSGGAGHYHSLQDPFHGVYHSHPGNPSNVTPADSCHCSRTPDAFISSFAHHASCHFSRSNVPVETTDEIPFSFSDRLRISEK
# Experiment: MALT-1 (Isoform 1) enzyme fluorescent biochemical assay
# Conditions: for IC50: dose-response, sigmoidal curve fit, reported as groups A, B, C; for inhibition at 1 µM: test compound 1 μM, read-out: Percent Inhibition (1 μM)
# Experimental: The potency of compounds to inhibit MALT-1 (Isoform 1) enzyme was tested in a Fluorescent assay using recombinant MALT-1 (Isoform 1, aa-840) generated in house. The assay buffer was 50 mM HEPES (pH 7.5), 100 mM NaCl, 10 mM DTT, 1 mM EDTA, 0.9 M sodium citrate, 0.01% CHAPS. 1.5 nM of MALT-1 enzyme was incubated with test compounds ([…]) (1% DMSO) in the presence of buffer for 30 minutes at 30° C. The protease reaction was initiated by adding […] of AC-LRSR-MAC (Peptide International, USA) substrate and incubated for 240 min. After 240 min incubation, fluorescence emission of the samples at 460 nm was measured at an excitation of 355 nm. The percent inhibition was calculated using the following formula: […]. IC50 values were determined by fitting the dose-response data to sigmoidal curve fitting equation using Graph pad prism software V8.
# ND represents Not Determined.
SMILES,IC50,inhibition at 1 µM (recombinant MALT-1 1.5 nM),"inhibition at 10 µM (test compound 10 μM (stated in the cell), recombinant MALT-1 1.5 nM, read-out: Percent Inhibition (10 μM))"
"O=C(Nc1cc(C(F)(F)F)cnn1)c1cnn(Cc2cccc(F)c2Cl)c1C(F)(F)F [Compound 43, 1-(2-chloro-3-fluorobenzyl)-5-(trifluoromethyl)-N-(5-(trifluoromethyl)pyridazin-3-y1)-1H-pyrazole-4-carboxamide]",> 1000 nM,13%,–
"O=C(Nc1cc(C(F)(F)F)ncn1)c1cnn(Cc2cccc(F)c2Cl)c1C(F)(F)F [Compound 44, 1-(2-chloro-3-fluorobenzyl)-5-(trifluoromethyl)-N-(6-(trifluoromethyl)pyrimidin-4-yl)-1H-pyrazole-4-carboxamide]",> 1000 nM,38%,–
"O=C(Nc1cnc(C(=O)N2CCCC2)c(Cl)c1)c1cnn(Cc2cccc(F)c2Cl)c1C(F)(F)F [Compound 45, 1-(2-chloro-3-fluorobenzyl)-N-(5-chloro-6-(pyrrolidine-1-carbonyl)pyridin-3-yl)-5-(trifluoromethyl)-1H-pyrazole-4-carboxamide]",> 1000 nM,40%,–
"O=C(Nc1cc(C(F)(F)F)ccn1)c1cnn(Cc2cccc(F)c2Cl)c1C(F)(F)F [Compound 46, 1-(2-chloro-3-fluorobenzyl)-5-(trifluoromethyl)-N-(4-(trifluoromethyl)pyridin-2-yl)-1H-pyrazole-4-carboxamide]",> 1000 nM,32%,–
"O=C(Nc1ccnc(C(O)C(F)(F)F)c1)c1cnn(Cc2cccc(F)c2Cl)c1C(F)(F)F (stereo not drawn) [Compound 47, 1-(2-chloro-3-fluorobenzyl)-N-(2-(2,2,2-trifluoro-1-hydroxyethyl)pyridin-4-y1)-5-(trifluoromethyl)-1H-pyrazole-4-carboxamide]",–,–,33%
"CC(C)C(c1cccc(F)c1)n1ncc(C(=O)Nc2cnc(-n3nccn3)c(C#N)c2)c1C(F)(F)F (stereo not drawn) [Compound 48, N-(5-cyano-6-(2H-1,2,3-triazol-2-yl)pyridin-3-yl)-1-(1-(3-fluorophenyl)-2-methylpropyl)-5-(trifluoromethyl)-1H-pyrazole-4-carboxamide]",> 1000 nM,23%,–
"N#Cc1cc(NC(=O)c2cnn(Cc3cccc(F)c3Cl)c2C(F)(F)F)cnc1-c1ccsc1 [Compound 55, 1-(2-chloro-3-fluorobenzyl)-N-(5-cyano-6-(thiophen-3-y1)pyridin-3-y1)-5-(trifluoromethyl)-1H-pyrazole-4-carboxamide]",251 to 1000 nM,63%,–
"N#Cc1cc(NC(=O)c2cnn(Cc3cccc(F)c3C(F)F)c2C(F)(F)F)cnc1-n1nccn1 [Compound 56, N-(5-cyano-6-(2H-1,2,3-triazol-2-yl)pyridin-3-y1)-1-(2-(difluoromethyl)-3-fluorobenzyl)-5-(trifluoromethyl)-1H-pyrazole-4-carboxamide]",251 to 1000 nM,77%,–

# Continued, values first:
IC50,inhibition at 1 µM (recombinant MALT-1 1.5 nM),"inhibition at 10 µM (test compound 10 μM (stated in the cell), recombinant MALT-1 1.5 nM, read-out: Percent Inhibition (10 μM))",SMILES
251 to 1000 nM,88%,–,"CC(c1cccc(Cl)c1)n1ncc(C(=O)Nc2cnc(-n3nccn3)c(Cl)c2)c1C(F)(F)F (stereo not drawn) [Compound 49, N-(5-chloro-6-(2H-1,2,3-triazol-2-yl)pyridin-3-yl)-1-(1-(3-chlorophenyl)ethyl)-5-(trifluoromethyl)-1H-pyrazole-4-carboxamide]"
< 250 nM,65%,–,"CC(c1cccc(C#N)c1)n1ncc(C(=O)Nc2cnc(-n3nccn3)c(C#N)c2)c1C(F)(F)F (stereo not drawn) [Compound 50, N-(5-cyano-6-(2H-1,2,3-triazol-2-yl)pyridin-3-yl)-1-(1-(3-cyanophenyl)ethyl)-5-(trifluoromethyl)-1H-pyrazole-4-carboxamide]"
< 250 nM,100%,–,"CC(c1cccc(Cl)c1)n1ncc(C(=O)Nc2cnc(-n3nccn3)c(C#N)c2)c1C(F)(F)F (stereo not drawn) [Compound 51, 1-(1-(3-chlorophenyl)ethyl)-N-(5-cyano-6-(2H-1,2,3-triazol-2-y1)pyridin-3-y1)-5-(trifluoromethyl)-1H-pyrazole-4-carboxamide]"
< 250 nM,100%,–,"Cc1c(F)cccc1C(C)n1ncc(C(=O)Nc2cnc(-n3nccn3)c(C#N)c2)c1C(F)(F)F (stereo not drawn) [Compound 52, N-(5-cyano-6-(2H-1,2,3-triazol-2-yl)pyridin-3-yl)-1-(1-(3-fluoro-2-methylphenyl)ethyl)-5-(trifluoromethyl)-1H-pyrazole-4-carboxamide]"
251 to 1000 nM,60%,–,"O=C(Nc1cnnc(C(F)(F)F)c1)c1cnn(Cc2cccc(F)c2Cl)c1C(F)(F)F [Compound 53, 1-(2-chloro-3-fluorobenzyl)-5-(trifluoromethyl)-N-(6-(trifluoromethyl)pyridazin-4-yl)-1H-pyrazole-4-carboxamide]"
251 to 1000 nM,77%,–,"N#Cc1cc(NC(=O)c2cnn(Cc3cccc(F)c3Cl)c2C(F)(F)F)cnc1-c1ccoc1 [Compound 54, 1-(2-chloro-3-fluorobenzyl)-N-(5-cyano-6-(furan-3-yl)pyridin-3-y1)-5-(trifluoromethyl)-1H-pyrazole-4-carboxamide]"
